# Measurements: publication PMC3948331 (Future medicinal chemistry, 2013)
# What was measured:
# zebrafish embryos = assay: Toxicity studies in zebrafish embryos; details: incubation of embryos; data not shown
# [1] = system: T. cruzi, strain Tulahuen C4 amastigotes; assay: In vitro activity against T. cruzi intracellular amastigotes in L6 host cells; type: cell-based, Trypanosoma cruzi; details: for Selectivity: IC50 in L6 cells/IC50 in T. cruzi, compounds 9–13; for IC50: Trypanosoma cruzi, TULAHUEN, L6, read-out: T. cruzi IC-50
# [2] = Cytotoxicity assessment in the host L6 cells; type: cell-based; details: rat, L6 cells (rat skeletal myoblasts)
# [3] = system: transgenic T. cruzi Y strain expressing firefly luciferase; assay: In vivo anti-T. cruzi fast luminescence assay in infected Balb/c mice; set-up: species or system Trypanosoma cruzi; details: for in vivo antichagasic activity compared with Bnz: 10-day treatment, Bnz 15 mg/kg/day
# [4] = Microsomal stability screen; type: in vitro ADME; details: mouse, microsomes, 1 h, 1 µM, pH 7.4
# Plasma stability screen = type: in vitro ADME, mouse; details: 5 µM
# in vitro = details: human, Caco-2
# Balb/c mice = assay: Apparent toxicity in treated T. cruzi-infected mice; type: in vivo; details: 30 mg/kg/day i.p., 5- and 10-day treatment
# guinea pigs = guinea pigs treated with Bnz; cited from earlier work
# S. typhimurium strains = details: cited from earlier work
# [5] = Caco-2 monolayer permeability; details: human
# [6] = logD at pH 6; threshold for high permeability; cited from earlier work
# [7] = i.p., 5–10 days treatment at the doses of Figure 1, more than 80 and up to 100%
compound,measurement,setting,value
CC1CS(=O)(=O)CCN1/N=C/c1ccc([N+](=O)[O-])o1 (stereo not shown) [nifurtimox],effect on zebrafish embryos' development,zebrafish embryos,"weakened heart beat, pericardial oedema or death"
"O=[N+]([O-])c1ncn(CCCCNS(=O)(=O)c2cc(Cl)c(Cl)s2)n1 [Compound 12, 4,5-dichloro-N-[4-(3-nitro-1H-1,2,4-triazol-1-yl)butyl]thiophene-2-sulfonamide]",Selectivity,[1],261.1
same,IC50,[1],373 nM
same,IC50,[2],97.3 µM
same,in vivo antichagasic activity compared with Bnz,[3]; 15 mg/kg/day i.p.,failed to perform better than Bnz
"O=C(NCCCCn1cnc([N+](=O)[O-])n1)c1nc2ccccc2s1 [Compound 13, N-[4-(3-nitro-1H-1,2,4-triazol-1-yl)butyl]-1,3-benzothiazole-2-carboxamide]",Selectivity,[1],364.4
same,IC50,[1],422 nM
same,IC50,[2],154 µM
same,in vivo antichagasic activity compared with Bnz,[3]; 15 mg/kg/day i.p.,failed to perform better than Bnz
CC(=O)CC(c1ccccc1)c1c(O)c2ccccc2oc1=O (stereo not shown) [Warfarin],Mean remaining parent comp (+)NADPH,[4],83.9%
same,Mean remaining parent comp,"Plasma stability screen; mouse, plasma, 1 h",97.8%
same,"Papp A→B at 2 h, 10 µM",in vitro,44.2 ×10⁻⁶ cm/s
"O=[N+]([O-])c1ncn(CCCNc2nc3ccc(Cl)cc3s2)n1 [Compound 10, 6-chloro-N-[3-(3-nitro-1H-1,2,4-triazol-1-yl)propyl]-1,3-benzothiazol-2-amine]",Selectivity,[1],1725
same,IC50,[1],59 nM
same,IC50,[2],102 µM
same,in vivo antichagasic activity,"[3]; 10 mg/kg/day i.p., 5- or 10-day treatment",failed to demonstrate in vivo antichagasic activity
same,Mean remaining parent comp (+)NADPH,[4],1.0%
same,Mean remaining parent comp (−)NADPH,[4],108%
same,Mean remaining parent comp,"Plasma stability screen; mouse plasma, 60 min, 37°C",87.3%
"O=[N+]([O-])c1ncn(CCCCNS(=O)(=O)c2ccc(Cl)s2)n1 [Compound 11, 5-chloro-N-[4-(3-nitro-1H-1,2,4-triazol-1-yl)butyl]thiophene-2-sulfonamide]",Selectivity,[1],277.5
same,IC50,[1],462 nM
same,IC50,[2],128 µM
same,parasite signal,"[3]; 15 mg/kg/day i.p., after 10 days of treatment, greater activity than Bnz",no detectable parasite signal
same,drop of parasite index,[3]; [7],more than 80%
"Cl.O=[N+]([O-])c1ncn(CCCNCCc2cccc(C(F)(F)F)c2)n1 [Compound 9, [3-(3-nitro-1H-1,2,4-triazol-1-yl)propyl] ({2-[3-(trifluoromethyl)phenyl]ethyl})amine hydrochloride]",Selectivity,[1],116
same,IC50,[1],775 nM
same,IC50,[2],90.1 µM
same,drop of parasite index,"[3]; 30 mg/kg/day i.p., after 5-day treatment",about 88%
same,drop of parasite index,"[3]; 30 mg/kg/day i.p., after 10-day treatment",~85%
same,drop of parasite index,[3]; [7],more than 80%
same,toxicity in treated mice,Balb/c mice,without any sign of toxicity
"O=C(Cn1ccnc1[N+](=O)[O-])NCc1ccccc1 [Bnz, benznidazole]",IC50,[1],1430 nM
same,mutagenic derivatives in serum and urine detectable by the Ames test,guinea pigs,not metabolized by the mammalian host into stable mutagenic derivatives
same,concentrations showing significant mutagenicity,S. typhimurium strains,< 62 µg/mL
CNC(=C[N+](=O)[O-])NCCSCc1ccc(CN(C)C)o1 [Ranitidine],"Papp A→B at 2 h, 10 µM",[5],0.5 ×10⁻⁶ cm/s
CC(C)[N+](C)(CCOC(=O)C1c2ccccc2Oc2ccccc21)C(C)C [Propantheline],Mean remaining parent comp,"Plasma stability screen; mouse plasma, 60 min, 37°C",30.4%
CC(CCc1ccccc1)NCC(O)c1ccc(O)c(C(N)=O)c1 (stereo not shown) [labetalol],logD6,[6],−0.42
